Article PMC6796924 (ACS Omega, 2019)
Values joined by “and” are separate entries in the source; they are usually repeats but may differ in a detail not shown here. Equal entries are not always repeated.

Key:
[1] = PK study after intranasal administration; format: in vivo, mice; settings: for concentration at 5 min / concentration at 15 min / concentration at 30 min / concentration at 45 min: other: intranasal, drug concentration in plasma; for Tmax at 7 days / Cmax at 7 days: 32.4 ug; for AUC(0-t): AUC0–t; for half-life: T1/2, plasma
[2] = PK study after oral administration; format: in vivo, mice
[3] = Solubility studies of K-604 in different vehicles; format: physicochemical
[4] = In vitro BBB permeability, BBB Kit; format: in vitro ADME; settings: Wistar, rat
[5] = pH 6.8; cited from earlier work
[6] = 0.01 N HCl solution, 32.4 μg/mouse intranasal vs oral 166 μg/mouse, cerebrum
[7] = CA solution, 108 μg/mouse intranasal vs oral 166 μg/mouse, cerebrum
[8] = GA solution, 108 μg/mouse intranasal vs oral 166 μg/mouse, cerebrum
[9] = HA solution, 108 μg/mouse intranasal vs oral 166 μg/mouse, cerebrum
[10] = female, Crl:CDI (ICR), mouse, plasma, 32.4 μg, repeated intranasal, 0.01 N HCl solution, 10 μL, mice
[11] = female, Crl:CDI (ICR), mouse, plasma, 162 μg, repeated (7 days) intranasal, 0.01 N HCl solution, 50 μL, mice
[12] = female, ICR, mouse, plasma, inhaled or intranasal, 108 ug, single intranasal, CA solution, 108 μg/10 μL, mice
[13] = female, ICR, mouse, plasma, inhaled or intranasal, 108 ug, single intranasal, GA solution, 108 μg/10 μL, mice
[14] = female, ICR, mouse, plasma, inhaled or intranasal, 108 ug, single intranasal, HA solution, 108 μg/10 μL, mice
[15] = repeated (7 days) intranasal, 0.01 N HCl solution, 32.4 μg/10 μL, mice
[16] = single intranasal, CA solution, 108 μg/10 μL, mice
[17] = single intranasal, GA solution, 108 μg/10 μL, mice
[18] = single intranasal, HA solution, 108 μg/10 μL, mice
[19] = female, ICR, mouse, cerebellum, po, 6 mg/kg
[20] = female, ICR, mouse, cerebrum, po, 6 mg/kg
[21] = female, ICR, mouse, plasma, po, 6 mg/kg
[22] = single oral 6 mg/kg (166 μg/mouse), 0.01 N HCl solution, mice

With CSc1cc(C)nc(SC)c1NC(=O)CN1CCN(CCSc2nc3ccccc3[nH]2)CC1.Cl [K-604, 2-(4-(2-((1H-Benzo[d]imidazol-2-yl)thio)ethyl)piperazin-1-yl)-N-(6-methyl-2,4-bis(methylthio)pyridin-3-yl)acetamide hydrochloride] the “intranasal AUC BTE index” value [1, 6] was 211, the “intranasal Cmax BTE index” value [1, 6] was 134 and the “drug concentration in plasma relative to cerebral tissue, fold higher” value ([1]; 5 to 45 min, repeated intranasal, 0.01 N HCl solution, 50 μL, mice) was 6- to 10 fold. The “intranasal AUC BTE index” value [1, 7] was 133, the “intranasal Cmax BTE index” value [1, 7] was 90 and the “intranasal AUC BTE index” value [1, 8] was 100. The “intranasal Cmax BTE index” value [1, 8] was 61, the “intranasal AUC BTE index” value [1, 9] was 137 and the “intranasal Cmax BTE index” value [1, 9] was 75. The Tmax ([1]; female, Crl:CD1 (ICR), mouse, cerebrum, inhaled or intranasal, 108 ug) was 15 min, the Tmax ([1]; female, Crl:CD1 (ICR), mouse, olfactory bulb, inhaled or intranasal, 108 ug) was 15 min and the Tmax ([1]; female, Crl:CD1 (ICR), mouse, plasma, inhaled or intranasal, 108 ug) was 5 min. For the same compound, the Cmax ([1]; female, Crl:CDI (ICR), mouse, cerebrum, inhaled or intranasal, 162 ug, cerebrum, repeated (7 days) intranasal, 0.01 N HCl solution, 162 μg/50 μL, mice) was 83 ng/g, the Cmax ([1]; female, Crl:CDI (ICR), mouse, cerebrum, inhaled or intranasal, 162 ug, cerebrum, single intranasal, 0.01 N HCl solution, 162 μg/50 μL, mice) was 66 ng/g and the Cmax ([1]; female, Crl:CDI (ICR), mouse, olfactory bulb, inhaled or intranasal, 162 ug, olfactory bulb, repeated (7 days) intranasal, 0.01 N HCl solution, 162 μg/50 μL, mice) was 285 ng/g. It also gave a Cmax ([1]; female, Crl:CDI (ICR), mouse, olfactory bulb, inhaled or intranasal, 162 ug, olfactory bulb, single intranasal, 0.01 N HCl solution, 162 μg/50 μL, mice) of 406 ng/g, an AUC ([1]; female, Crl:CDI (ICR), mouse, plasma, inhaled or intranasal, 162 ug) of 345 ng·h/mL and a Cmax ([1]; female, Crl:CDI (ICR), mouse, plasma, inhaled or intranasal, 162 ug, plasma, repeated (7 days) intranasal, 0.01 N HCl solution, 162 μg/50 μL, mice) of 870 ng/mL. The Cmax ([1]; female, Crl:CDI (ICR), mouse, plasma, inhaled or intranasal, 162 ug, plasma, single intranasal, 0.01 N HCl solution, 162 μg/50 μL, mice) was 574 ng/mL, the concentration at 5 min [1, 10] was 142 ng/mL and the concentration at 15 min [1, 10] was 90 ng/mL. It also gave a concentration at 30 min [1, 10] of 33 ng/mL, a concentration at 45 min [1, 10] of 10 ng/mL and a concentration at 5 min [1, 11] of 870 ng/mL. The concentration at 15 min [1, 11] was 449 ng/mL, the concentration at 30 min [1, 11] was 250 ng/mL and the concentration at 45 min [1, 11] was 77 ng/mL. For the same compound, the Tmax at 7 days ([1]; female, ICR, mouse, cerebrum, inhaled or intranasal) was 5 min, the Cmax at 7 days ([1]; female, ICR, mouse, cerebrum, inhaled or intranasal, repeated (7 days) intranasal, 0.01 N HCl solution, 32.4 μg/10 μL, mice) was 21 ± 10 ng/g and the Tmax ([1]; female, ICR, mouse, cerebrum, inhaled or intranasal, 108 ug) was 5 min. It also gave a Cmax ([1]; female, ICR, mouse, cerebrum, inhaled or intranasal, 108 ug, single intranasal, CA solution, 108 μg/10 μL, mice) of 47 ± 29 ng/g, a Cmax ([1]; female, ICR, mouse, cerebrum, inhaled or intranasal, 108 ug, single intranasal, GA solution, 108 μg/10 μL, mice) of 32 ± 7 ng/g and a Cmax ([1]; female, ICR, mouse, cerebrum, inhaled or intranasal, 108 ug, single intranasal, HA solution, 108 μg/10 μL, mice) of 39 ± 11 ng/g. For the same compound, the Tmax at 7 days ([1]; female, ICR, mouse, olfactory bulb, inhaled or intranasal) was 5 min, the Cmax at 7 days ([1]; female, ICR, mouse, olfactory bulb, inhaled or intranasal, repeated (7 days) intranasal, 0.01 N HCl solution, 32.4 μg/10 μL, mice) was 156 ± 131 ng/g and the Tmax ([1]; female, ICR, mouse, olfactory bulb, inhaled or intranasal, 108 ug) was 5 min. For the same compound, the Cmax ([1]; female, ICR, mouse, olfactory bulb, inhaled or intranasal, 108 ug, single intranasal, CA solution, 108 μg/10 μL, mice) was 351 ± 112 ng/g, the Cmax ([1]; female, ICR, mouse, olfactory bulb, inhaled or intranasal, 108 ug, single intranasal, GA solution, 108 μg/10 μL, mice) was 160 ± 24 ng/g and the Cmax ([1]; female, ICR, mouse, olfactory bulb, inhaled or intranasal, 108 ug, single intranasal, HA solution, 108 μg/10 μL, mice) was 274 ± 100 ng/g. The Tmax at 7 days ([1]; female, ICR, mouse, plasma, inhaled or intranasal) was 5 min, the Cmax at 7 days ([1]; female, ICR, mouse, plasma, inhaled or intranasal, repeated (7 days) intranasal, 0.01 N HCl solution, 32.4 μg/10 μL, mice) was 146 ± 20 ng/mL and the Tmax ([1]; female, ICR, mouse, plasma, inhaled or intranasal, 108 ug) was 5 min. The AUC(0-t) [1, 12] was 165 ng·h/mL, the AUC(0-t) [1, 13] was 121 ng·h/mL and the AUC(0-t) [1, 14] was 170 ng·h/mL. For the same compound, the Cmax [1, 12] was 283 ± 121 ng/mL, the Cmax [1, 13] was 217 ± 51 ng/mL and the Cmax [1, 14] was 274 ± 30 ng/mL. It also gave a half-life [1, 12] of 13.4 ± 1.7 min, a half-life [1, 13] of 16.6 ± 2.9 min and a half-life [1, 14] of 17.4 ± 2.1 min. For the same compound, the “AUC0–t, cerebrum” value [1, 15] was 367 ng·min/g and 367 ± 121 ng·min/g, the “AUC0–t, olfactory bulb” value [1, 15] was 2113 ± 1380 ng·min/g and the “AUC0–t, cerebrum” value [1, 16] was 772 ng·min/g and 772 ± 223 ng·min/g. The “AUC0–t, olfactory bulb” value [1, 16] was 3976 ± 642 ng·min/g, the “Tmax, plasma” value [1, 16] was 5 min and the “AUC0–t, cerebrum” value [1, 17] was 579 ng·min/g and 579 ± 137 ng·min/g. The “AUC0–t, olfactory bulb” value [1, 17] was 3406 ± 2127 ng·min/g, the “AUC0–t, cerebrum” value [1, 18] was 791 ng·min/g and 791 ± 160 ng·min/g and the “AUC0–t, olfactory bulb” value [1, 18] was 5200 ± 1036 ng·min/g. For the same compound, the Cmax [2, 19] was 0.7 ± 0.3 ng/g, the Tmax [2, 19] was 15 min and the Cmax [2, 20] was 0.8 ± 0.4 ng/g. The Tmax [2, 20] was 15 min, the AUC(0-t) [2, 21] was 3.29 ng·h/mL and the Cmax [2, 21] was 6.2 ± 3.1 ng/mL. The Tmax [2, 21] was 15 min, the “AUC0–t, cerebellum” value [2, 22] was 5.4 ± 4.9 ng·min/g and the “AUC0–t, olfactory bulb” value [2, 22] was 0 ± 0 ng·min/g. For the same compound, the “AUC0–t, cerebrum” value ([2]; single oral 6 mg/kg (166 μg/mouse), 0.01 N HCl solution, mice, 6 mg/kg) was 8.9 ng·min/g and 9 ng·min/g and 8.9 ± 7.4 ng·min/g, the “drug concentrations in cerebrum and cerebellum tissue at 60 min” value ([2]; single oral 6 mg/kg, mice, LLOQ 0.5 ng/g) was “less than the lower limit of quantification (LLOQ)” and the “drug concentrations in the olfactory bulb tissue, all time points” value ([2]; single oral 6 mg/kg, mice, LLOQ 1 ng/g) was “less than the LLOQ”. The solubility at 24 h ([3]; CA aqueous solution (additive 7.7 mg, 0.04 M), pH 3, thermodynamic from solid) was 10.8 mg/mL, the solubility at 24 h ([3]; GA aqueous solution (additive 4 mg, 0.04 M), pH 3.6, thermodynamic from solid) was 10.8 mg/mL and the solubility at 24 h ([3]; HA aqueous solution (additive 5 mg), pH 3.8, thermodynamic from solid) was 10.8 mg/mL. The solubility ([3]; water, pH 6.8, water) was 0.05 mg/mL, the Papp at 30 min, 1 μM [4] was 21.9 ×10⁻⁶ cm/s and the Aqueous solubility [5] was 0.05 mg/mL.
Compound NC(=O)N1c2ccccc2C=Cc2ccccc21 [carbamazepine, 5H-dibenzo[b,f]azepine-5-carboxamide, reference compound] has a Papp at 30 min, 1 μM [4] of 47.8 ×10⁻⁶ cm/s.
